Experimental data as given in PMC10985113, “Exploring bi-carbazole-linked triazoles as inhibitors of prolyl endo peptidase via integrated in vitro and in silico study” (Scientific Reports, 2024).

Legend:
[1] = test system: human fibroblast BJ cell line; test: Cytotoxicity evaluation (MTT) on BJ cell line; format: cell-based; conditions: BJ cells; for Cytotoxicity effect / % Inhibition ± SEM (µM): 60 µM; for % Inhibition of cell viability (60 µM) / inhibition at 60 µM / % Inhibition ± SEM (µM): 48 h; for inhibition at 60 µM: Homo sapiens, read-out: % Inhibition ± SEM; for inhibition at 60 µM / % Inhibition ± SEM (µM): mean of three
Experimental: To investigate the cytotoxic effect of these compounds we proceeded all the active compounds 3–9 for their in-vitro study by using BJ cell line. Here we designed our experiment with a specific count of the cells with 6 × 10^4 cells/well were employed into the plate. In each well we added 100 µL followed by 24 h incubation at specific temperature 37 °C in 5% CO2. After that, the 96-well plate was incubated with 50 µL/well (60 µM) of the tested compounds along with 150 µL/well fresh media for 48 h at the similar specific experimental conditions. After 2nd time of incubation, the old media was replaced with 200 µL yellow MTT dye in each well according to 1:10 ratio with the media followed by 4-h incubation. In the next step the dye was removed completely and DMSO (Dimethyl sulfoxide) cell culture grade 100 µL/well was employed into the 96-well plate to dissolve the produced formazan crystals of MTT dye converted into purple. At the end of experiment the obtained changes in the (OD) optical density was monitored at 540 by using spectrophotometer.

prolyl endopeptidase = prolyl endopeptidase (Elizabethkingia meningoseptica, UniProt P27028); test: In vitro prolyl endopeptidase inhibitory assay (spectrophotometric, Z-Gly-Pro-4-nitroanilide substrate); format: biochemical; conditions: triplicate, ± SEM; read-out: (IC50 ± µM) in vitro prolyl endo peptidase inhibitory activity
Experimental: Prolyl endopeptidase inhibitory activity was measured using a slightly modified version of Yoshimoto et al. spectrophotometric technique. In a 96-well plate, 140 µL of sodium phosphate buffer (50 mM, pH 7.0), 20 µL of the test substance (0.5 mM in methanol), and 20 µL of prolyl endopeptidase solution (0.02 U/well) were added to provide a total reaction volume of […]. Blank contained 20 µL methanol, instead of the test compound, while Z-prolyl-prolinal (0.5 mM) was used as the positive control. After the reaction mixture had been incubated at 30 °C for 10 min. Now 20 µL of the substrate solution, Z-Gly-Pro-4-nitroanilide (0.4 mM in 1,4-dioxane), was added, and a 96-well plate reader was used to continually monitor the change in absorbance at 410 nm for 30 min (SpectraMax-384, Molecular Devices, CA, USA). The reaction mixture's ultimate methanol and 1,4-dioxane concentrations were 10% v/v. In 96-well microplates, each reaction was carried out in triplicate.
The current study's experiments were all carried out in triplicate, and the data were presented as the standard error of the mean (SEM). Using the statistical software EZ-FIT enzyme kinetics, the IC50 values were determined (Perrella Scientific, Inc., Amherst, NH 03031, USA). […] (1) and (2).1 %Inhibition=100-O.Dtestcompound/O.Dcontrol×100 2 SE=σ/n

prolyl endo peptidase = test: Kinetic studies (Lineweaver-Burk, Dixon plots) on PEP; format: biochemical; conditions: for Ki: substrate Z-Gly-Pro-pNA 0.2-0.5 mM
Experimental: Secondary replot of Line weaver-Burk plot between the slopes of each line on-Line weaver-Burk plot versus different concentrations of compounds 7, 8 (B, E). Dixon plot of reciprocal of rate of reaction (velocities) versus different concentrations of compounds 7, 8 (C, F).
In kinetic study PEP (0.02 U/200 L) was incubated with a range of inhibitor different concentrations for 10 min at 30 °C. The substrate was often utilized at doses between 0.2 and 0.5 mM. The substrate solutions (Z-Gly-Pro-pNA) were added at four different concentrations (0.2, 0.3, 0.4, and 0.5 mM), starting with the lowest concentration and working up to the highest concentration, to begin the catalytic reaction. Using a 96-well plate reader, the catalytic activity of PEP was measured at 410 nm (SpectraMax-384, Molecular Devices, CA, USA).

Chain of prolyl endopeptidase (P27028 21-705): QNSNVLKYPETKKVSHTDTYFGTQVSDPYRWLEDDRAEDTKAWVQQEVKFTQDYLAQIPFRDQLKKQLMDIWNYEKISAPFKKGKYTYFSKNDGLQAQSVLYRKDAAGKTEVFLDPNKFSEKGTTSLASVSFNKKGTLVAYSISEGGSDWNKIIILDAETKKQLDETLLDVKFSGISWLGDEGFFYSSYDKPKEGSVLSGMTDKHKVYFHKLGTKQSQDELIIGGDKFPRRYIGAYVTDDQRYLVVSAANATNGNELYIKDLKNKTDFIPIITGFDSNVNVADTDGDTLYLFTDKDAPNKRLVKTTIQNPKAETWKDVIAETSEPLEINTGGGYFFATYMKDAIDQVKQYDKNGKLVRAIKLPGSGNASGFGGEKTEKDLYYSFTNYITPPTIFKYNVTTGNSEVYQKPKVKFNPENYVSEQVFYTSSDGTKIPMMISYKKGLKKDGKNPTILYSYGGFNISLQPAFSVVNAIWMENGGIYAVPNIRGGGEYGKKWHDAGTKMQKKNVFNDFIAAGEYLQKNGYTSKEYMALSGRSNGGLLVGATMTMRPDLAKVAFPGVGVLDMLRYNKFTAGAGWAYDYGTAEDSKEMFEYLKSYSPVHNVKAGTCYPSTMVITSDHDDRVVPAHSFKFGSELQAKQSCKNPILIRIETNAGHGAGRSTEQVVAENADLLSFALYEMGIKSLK

Molecule	Cytotoxicity effect [1]	% Inhibition of cell viability (60 µM) ([1]; first replicate column) [%]	% Inhibition of cell viability (60 µM) ([1]; second replicate column) [%]	% Inhibition of cell viability (60 µM) ([1]; third replicate column) [%]	inhibition at 60 µM [1] [%]	IC50 (prolyl endopeptidase) [µM]	% Inhibition ± SEM (µM) [1] [%]	type (pattern) of inhibition (prolyl endo peptidase)	Ki (prolyl endo peptidase) [µM]
C=Cn1c2ccccc2c2ccccc21 [Compound 3]	Non-toxic	26.34	22.74	23.95	24.4 ± 1.1				
Bacitracin [reference compound]						125 ± 1.5			
C=Cn1c2ccccc2c2cc(-c3ccc4c(c3)c3ccccc3n4C=C)ccc21 [Compound 4]	Non-toxic	22.75	21.55	26.34	23.6 ± 1.44				
O=C(Cn1cc(Cn2c3ccccc3c3cc(-c4ccc5c(c4)c4ccccc4n5Cc4cn(CC(=O)c5ccc(Br)cc5)nn4)ccc32)nn1)c1ccc(Br)cc1 [Compound 8]	Non-toxic	19.52	25.14	25.14		28.3 ± 0.64	23.27 ± 1.87	mixed	23.67 ± 0.0084
O=C(Cn1cc(Cn2c3ccccc3c3cc(-c4ccc5c(c4)c4ccccc4n5Cc4cn(CC(=O)c5ccc(Cl)cc5)nn4)ccc32)nn1)c1ccc(Cl)cc1 [Compound 7]	Non-toxic	20.35	26.34	25.14		26.3 ± 0.76	23.95 ± 1.83	mixed	24.1 ± 0.0076
COc1ccc(C(=O)Cn2cc(Cn3c4ccccc4c4cc(-c5ccc6c(c5)c5ccccc5n6Cc5cn(CC(=O)c6ccc(OC)cc6)nn5)ccc43)nn2)cc1 [Compound 9]	Non-toxic	16.75	21.55	19.16		31.1 ± 0.84	19.16 ± 1.38		
O=C(Cn1cc(Cn2c3ccccc3c3cc(-c4ccc5c(c4)c4ccccc4n5Cc4cn(CC(=O)c5ccccc5)nn4)ccc32)nn1)c1ccccc1 [Compound 5]	Non-toxic	25.14	22.74	20.35	22.8 ± 1.38				
Cc1ccc(C(=O)Cn2cc(Cn3c4ccccc4c4cc(-c5ccc6c(c5)c5ccccc5n6Cc5cn(CC(=O)c6ccc(C)cc6)nn5)ccc43)nn2)cc1 [Compound 6]	Non-toxic	21.55	20.35	23.95	21.9 ± 1.05				
